From ChEMBL document CHEMBL1129168, “Synthesis and antiviral activity of new phosphonobutoxypurines” (Bioorg Med Chem Lett, 1996)
Converted amounts (≈) assume the structure as drawn.

How the values were obtained:
Human alphaherpesvirus 1 = assay: Compound was tested in vitro for antiviral activity against Herpes simplex virus-Type 1 in SC 16 cells.; type: functional, organism-based
Human alphaherpesvirus 2 = assay: Compound was tested in vitro for antiviral activity against Herpes simplex virus-Type 2 in MS cells.; type: functional, organism-based; conditions: Human alphaherpesvirus 2, MS
MRC5 = assay: Compound was tested in vitro for antiviral activity against Herpes viruses(HSV-2, VZV) in human fibroblast (MRC-5) cells.; type: functional, cell-based
Homo sapiens = species on record: Homo sapiens; assay: Compound was tested for its activity against HIV replication in human peripheral blood lymphocytes (PBLs) using MTT-based cytotoxicity assay.; type: functional, organism-based
Human alphaherpesvirus 3 = assay: Compound was tested in vitro for antiviral activity against Varicella zoster virus (VZV) in ellen cells.; type: functional, organism-based
D34 = assay: Compound was tested in vitro for antiviral activity against Human immunodeficiency virus type-1 in D34 cells.; type: functional, cell-based

Structure (SMILES) | IC50 (Human alphaherpesvirus 1) | IC50 (Human alphaherpesvirus 2) | IC50 (Human alphaherpesvirus 3) | IC50 (D34) | IC50 (MRC5) | IC50 (Homo sapiens)
Nc1ncnc2c1ncn2OCCCCP(=O)(O)O | > 100 µg/mL | > 100 µg/mL | > 100 µg/mL | > 100 µM | 58 µg/mL (≈ 202 µM) | –
Nc1nc(N)c2ncn(OCCCCP(=O)(O)O)c2n1 | > 100 µg/mL | > 100 µg/mL | 17 µg/mL (≈ 56.2 µM) | 1 µM | 26 µg/mL (≈ 86 µM) | > 100 µM
Nc1ncnc2c1ncn2OCC(CO)CCP(=O)(O)O (stereo unspecified) | > 100 µg/mL | > 100 µg/mL | > 100 µg/mL | > 100 µM | > 100 µg/mL | –

Continued, in another order:

IC50 (Human alphaherpesvirus 1) | IC50 (Human alphaherpesvirus 2) | IC50 (Human alphaherpesvirus 3) | IC50 (D34) | Structure (SMILES) | IC50 (MRC5) | IC50 (Homo sapiens)
> 100 µg/mL | 23 µg/mL (≈ 75.9 µM) | 6 µg/mL (≈ 19.8 µM) | 0.01 µM | Nc1nc(O)c2ncn(OCCCCP(=O)(O)O)c2n1 | 1.6 µg/mL (≈ 5.28 µM) | > 100 µM
> 100 µg/mL | > 100 µg/mL | 5 µg/mL (≈ 15 µM) | > 100 µM | Nc1nc(O)c2ncn(OCC(CO)CCP(=O)(O)O)c2n1 (stereo unspecified) | 8.8 µg/mL (≈ 26.4 µM) | –
> 100 µg/mL | > 100 µg/mL | 17 µg/mL (≈ 51.2 µM) | – | Nc1nc(N)c2ncn(OCC(CO)CCP(=O)(O)O)c2n1 (stereo unspecified) | 78 µg/mL (≈ 235 µM) | –
